For series [1] the following is noted: relative humidity increased from about 0% to about 90% RH; cited from earlier work.
The next series addresses T1, GSPT1 (Homo sapiens, UniProt P15170).
T1 construct: endogenous in cells; host or cells: KG-1 (TMT proteomics); KG1, U937 / U937-Cas9, MOLM-13, OCI-AML2 (immunoblots)
As to the kind of experiment: Immunoblot analysis of Compound D-induced GSPT1 degradation in AML cells. Format: cell-based. To be noted: U937 parental, TSC1-/- and TSC2-/- cells. On the procedure:
FIG. 2A illustrates the volcano plot of differentially abundant proteins in response to Compound D treatment relative to the DMSO control. KG1 cells were treated with DMSO or 100 nM Compound D for 4 hours and subjected to TMT proteomics analysis. The X-axis denotes the log 2-fold change of Compound D versus the DMSO control for each protein. P-values were corrected for multiple hypothesis testing using the Benjamini-Hoschberg method to arrive at an adjusted-P-value (adj-P, also known as a false discovery rate). The y-axis denotes the −log 10 (adj-P) values indicating statistical significance such that proteins lying above the dotted red line are statistically significant findings with adjusted P-values<0.05. FIG. 2B illustrates the immunoblot analysis of KG1 and U937 cells treated with DMSO or Compound D for 4 hours. Where indicated, cells were pretreated with Bortezomib or MLN4924 for 30 minutes. FIGS. 2C and 2D illustrate the immunoblot analysis (FIG. 2C) and cell proliferation (FIG. 2D) of U937-Cas9 parental cells or cells stably transduced with lentiviral vectors expressing a non-targeting sgRNA (sgNT-1), a sgRNA targeting a non-coding region (sgNC-8), or a sgRNA targeting CRBN(sgCRBN-8). Cells were treated with DMSO or Compound D at indicated concentrations. FIGS. 2E and 2F illustrate the immunoblot analysis (left panel) and cell proliferation (right panel) of MOLM-13 (FIG. 2E) and OCI-AML2 (FIG. 2F) parental and CRBN−/− cells. Cells were treated with DMSO or Compound D at indicated concentrations. Results shown in all figure panels are representative of three biological replicates. Data in FIGS. 2D, 2E (right panel), and 2F (right panel) are shown as mean±SD, n=3 technical replicates.
FIG. 3A illustrates FLAG-HA tagged cereblon wild-type (FLAG-HA-CRBN) or Y384A/W386A mutant (FLAG-HA-YWAA) produced in 293FT CRBN−/− cells was used to capture V5 tagged GSPT1 (GSPT1-V5) and V5 tagged IKZF1 (IKZF1-V5) transiently expressed in 293FT CRBN−/− cells. […] FIG. 3B illustrates the surface representation of GSPT1 in complex with cereblon, DDB1 and Compound D, with DDB1 shown in purple, cereblon in blue, and GSPT1 in orange. The position of Compound D is shown with a white arrow. FIG. 3C illustrates the Fo-Fc omit electron density (green mesh) for Compound D (yellow sticks) contoured at 3.06. FIG. 3D illustrates GSPT1's interaction with cereblon is mediated by a β-hairpin loop. Hydrogen bond interactions between cereblon and the GPST1 β-hairpin are shown as yellow dashes. FIG. 3E illustrates details of the binding interface between cereblon and GSPT1. Compound D is represented as yellow sticks. Predicted polar interactions between Compound D and cereblon are shown as yellow dashes. FIG. 3F illustrates the immunoblot analysis of U937 parental cells or cells stably expressing HA-GSPT1-G575N. Cells were treated with DMSO or Compound D at the indicated concentrations. FIGS. 3G and 311 illustrate the immunoblot analysis (left panel) and cell proliferation (right panel) of MOLM-13 (FIG. 3G) and OCI-AML2 (FIG. 311) parental cells and cells stably expressing HA tagged GSPT1-G575N. Cells were treated with DMSO or Compound D at indicated concentrations.
Like all other cereblon modulators, Compound D contains a glutarimide ring (FIG. 1A) that can bind cereblon and redirect it to target neosubstrates for degradation. Thus, the effect of Compound D on the global proteome in AML cell line KG-1 was assessed using tandem mass tag (TMT) quantitative mass spectrometry.
Specifically, U937 cells stably expressing Cas9 were infected with lentiviral vectors constitutively expressing RFP and non-targeting or non-coding sgRNA (sgNT) controls, or sgRNAs targeting TSC1 or TSC2. Infected cells were selected with 1 μg/ml puromycin. […]
A general note: Immunoblotting shows a protein as a band on a membrane.

The target of the next series is Ikaros (Homo sapiens, UniProt Q13422+Q96SW2). To be noted: U937-Cas9; 18 hours. On the procedure: Cells were treated with DMSO or Compound D in the presence of cycloheximide. FIGS. 8D and 8E show the immunoblot analysis of U937-Cas9 cells stably expressing HA-tagged GSPT1 and the indicated sgRNAs. Cells were treated with DMSO, Compound D (FIG. 8D) or pomalidomide (POM; FIG. 8E) at the indicated concentrations for 18 hours.
To understand whether the effect of mTOR activation on Compound D-induced GSPT1 degradation can be ascribed to an increased rate of GSPT1 protein synthesis and/or a decreased rate of GSPT1 degradation, the change of GSPT1 protein half-life in response to TSC1 or TSC2 loss in the presence or absence of Compound D was determined.

Sequence of Ikaros (Q96SW2 whole entry): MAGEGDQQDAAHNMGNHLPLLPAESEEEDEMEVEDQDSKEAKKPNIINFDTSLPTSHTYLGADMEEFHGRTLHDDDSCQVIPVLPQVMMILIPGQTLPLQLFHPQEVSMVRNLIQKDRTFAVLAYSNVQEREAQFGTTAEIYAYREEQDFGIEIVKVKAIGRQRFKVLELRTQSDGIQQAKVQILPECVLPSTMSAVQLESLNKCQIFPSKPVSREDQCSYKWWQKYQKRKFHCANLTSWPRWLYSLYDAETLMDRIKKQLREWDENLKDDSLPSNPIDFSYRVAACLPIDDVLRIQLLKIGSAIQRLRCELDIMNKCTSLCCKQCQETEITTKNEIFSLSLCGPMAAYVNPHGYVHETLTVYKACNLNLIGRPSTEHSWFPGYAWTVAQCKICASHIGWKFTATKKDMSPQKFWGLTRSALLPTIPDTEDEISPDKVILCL
Sequence of Ikaros (Q13422 whole entry): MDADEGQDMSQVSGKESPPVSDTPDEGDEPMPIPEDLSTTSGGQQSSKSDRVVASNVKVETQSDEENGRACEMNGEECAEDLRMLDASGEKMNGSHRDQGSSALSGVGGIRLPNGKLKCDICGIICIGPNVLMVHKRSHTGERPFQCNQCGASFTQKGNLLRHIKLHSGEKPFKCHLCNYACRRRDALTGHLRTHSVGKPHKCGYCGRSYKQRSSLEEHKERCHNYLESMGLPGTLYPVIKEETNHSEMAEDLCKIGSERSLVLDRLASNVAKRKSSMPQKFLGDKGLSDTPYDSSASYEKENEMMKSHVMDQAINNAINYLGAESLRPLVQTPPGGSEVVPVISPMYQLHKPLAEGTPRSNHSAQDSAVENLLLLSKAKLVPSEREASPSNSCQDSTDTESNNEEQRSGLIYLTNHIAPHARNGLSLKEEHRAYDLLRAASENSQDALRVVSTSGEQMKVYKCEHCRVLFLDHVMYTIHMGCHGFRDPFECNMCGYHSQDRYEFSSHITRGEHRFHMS
Sequence of Ikaros (Q16531 whole entry, further chain): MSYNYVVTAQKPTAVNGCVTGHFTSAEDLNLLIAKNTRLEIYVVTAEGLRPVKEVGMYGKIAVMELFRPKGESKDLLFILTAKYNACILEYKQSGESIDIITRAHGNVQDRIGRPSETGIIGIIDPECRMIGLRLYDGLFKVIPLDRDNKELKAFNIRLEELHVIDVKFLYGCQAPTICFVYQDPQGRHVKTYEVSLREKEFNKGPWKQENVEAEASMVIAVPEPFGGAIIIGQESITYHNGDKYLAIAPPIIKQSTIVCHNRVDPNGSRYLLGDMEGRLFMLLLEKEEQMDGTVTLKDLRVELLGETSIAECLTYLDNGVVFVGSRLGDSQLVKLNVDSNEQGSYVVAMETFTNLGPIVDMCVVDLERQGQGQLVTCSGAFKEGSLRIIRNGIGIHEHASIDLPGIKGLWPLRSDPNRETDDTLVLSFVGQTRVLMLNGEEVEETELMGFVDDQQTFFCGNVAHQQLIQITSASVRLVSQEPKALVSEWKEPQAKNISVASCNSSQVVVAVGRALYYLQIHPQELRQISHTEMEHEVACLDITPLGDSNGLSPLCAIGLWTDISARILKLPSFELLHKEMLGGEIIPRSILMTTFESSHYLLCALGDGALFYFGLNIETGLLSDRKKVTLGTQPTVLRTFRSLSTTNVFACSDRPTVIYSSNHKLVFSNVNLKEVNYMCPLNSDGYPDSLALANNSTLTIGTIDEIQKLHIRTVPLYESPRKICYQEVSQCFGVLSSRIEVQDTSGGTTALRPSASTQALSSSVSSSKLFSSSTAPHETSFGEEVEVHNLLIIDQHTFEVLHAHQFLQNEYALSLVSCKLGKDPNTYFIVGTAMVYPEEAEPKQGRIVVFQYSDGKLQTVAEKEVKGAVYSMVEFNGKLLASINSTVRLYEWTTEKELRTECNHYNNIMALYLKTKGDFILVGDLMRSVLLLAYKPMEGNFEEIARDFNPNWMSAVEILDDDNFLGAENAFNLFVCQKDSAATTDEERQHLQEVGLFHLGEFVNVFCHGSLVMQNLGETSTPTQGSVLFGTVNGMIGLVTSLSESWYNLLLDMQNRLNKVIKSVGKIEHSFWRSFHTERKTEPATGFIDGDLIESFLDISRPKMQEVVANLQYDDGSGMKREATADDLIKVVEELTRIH
T1 sequence (P15170 1-637 isoform P15170-3): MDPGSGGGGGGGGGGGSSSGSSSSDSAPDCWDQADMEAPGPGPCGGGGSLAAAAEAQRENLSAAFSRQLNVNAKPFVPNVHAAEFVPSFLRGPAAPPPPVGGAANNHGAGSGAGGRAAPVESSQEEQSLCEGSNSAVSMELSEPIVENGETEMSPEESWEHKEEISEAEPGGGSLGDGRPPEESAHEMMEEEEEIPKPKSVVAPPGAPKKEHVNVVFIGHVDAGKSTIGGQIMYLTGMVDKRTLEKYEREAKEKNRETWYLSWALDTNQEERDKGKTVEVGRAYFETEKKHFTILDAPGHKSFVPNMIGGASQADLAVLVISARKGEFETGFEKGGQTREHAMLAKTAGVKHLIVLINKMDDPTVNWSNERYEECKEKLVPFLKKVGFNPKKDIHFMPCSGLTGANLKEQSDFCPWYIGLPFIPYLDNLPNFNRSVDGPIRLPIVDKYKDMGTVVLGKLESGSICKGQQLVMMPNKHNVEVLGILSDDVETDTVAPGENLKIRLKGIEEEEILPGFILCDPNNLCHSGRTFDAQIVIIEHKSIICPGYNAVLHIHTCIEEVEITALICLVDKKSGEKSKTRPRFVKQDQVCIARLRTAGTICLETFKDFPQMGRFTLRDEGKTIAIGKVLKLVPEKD
T1 sequence (Q96SW2 whole entry partner): as the sequence (Q96SW2 whole entry) above
T1 sequence (Q16531 2-1140 partner): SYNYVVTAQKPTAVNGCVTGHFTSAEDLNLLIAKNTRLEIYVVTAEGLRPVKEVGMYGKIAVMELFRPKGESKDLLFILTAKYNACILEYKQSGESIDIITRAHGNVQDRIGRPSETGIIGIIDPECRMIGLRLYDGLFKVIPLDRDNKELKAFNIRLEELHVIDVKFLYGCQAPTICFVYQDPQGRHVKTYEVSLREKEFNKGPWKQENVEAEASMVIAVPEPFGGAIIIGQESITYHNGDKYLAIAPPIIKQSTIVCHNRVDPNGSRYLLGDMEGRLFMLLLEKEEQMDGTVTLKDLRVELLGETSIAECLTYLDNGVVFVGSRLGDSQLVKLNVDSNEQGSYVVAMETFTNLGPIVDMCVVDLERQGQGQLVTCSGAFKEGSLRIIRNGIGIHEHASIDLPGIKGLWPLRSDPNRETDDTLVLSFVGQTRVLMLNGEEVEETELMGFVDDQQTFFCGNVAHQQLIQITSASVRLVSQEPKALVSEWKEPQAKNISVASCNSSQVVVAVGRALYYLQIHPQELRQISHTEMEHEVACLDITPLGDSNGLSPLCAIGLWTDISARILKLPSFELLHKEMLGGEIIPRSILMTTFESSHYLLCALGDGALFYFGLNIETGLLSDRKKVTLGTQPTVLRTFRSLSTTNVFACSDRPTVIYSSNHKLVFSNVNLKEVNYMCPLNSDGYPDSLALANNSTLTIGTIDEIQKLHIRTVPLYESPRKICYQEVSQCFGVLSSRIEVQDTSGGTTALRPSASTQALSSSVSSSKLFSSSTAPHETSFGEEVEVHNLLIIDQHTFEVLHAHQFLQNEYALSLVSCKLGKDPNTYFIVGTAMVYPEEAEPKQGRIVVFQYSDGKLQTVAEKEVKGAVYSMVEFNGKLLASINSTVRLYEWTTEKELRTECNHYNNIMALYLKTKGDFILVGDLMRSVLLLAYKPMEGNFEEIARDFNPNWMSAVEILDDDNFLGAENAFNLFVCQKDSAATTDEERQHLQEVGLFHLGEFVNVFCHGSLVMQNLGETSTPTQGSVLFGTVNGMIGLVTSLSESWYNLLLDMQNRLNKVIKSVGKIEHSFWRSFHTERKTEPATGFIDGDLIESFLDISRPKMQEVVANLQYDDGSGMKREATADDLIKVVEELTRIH

Take `O=C1CCC(N2Cc3cc(CNC(=O)C(F)(F)c4ccc(Cl)cc4)ccc3C2=O)C(=O)N1` (centres unmarked) [Form A, 2-(4-chlorophenyl)-N-((2-(2,6-dioxopiperidin-3-yl)-1-oxoisoindolin-5-yl)methyl)-2,2-difluoroacetamide]: the water uptake result in series [1] is listed as “about 1.2 % w/w”.
Turning to `O=C1CCC(N2Cc3cc(CNC(=O)C(F)(F)c4ccc(Cl)cc4)ccc3C2=O)C(=O)N1` (centres unmarked) [Form B, 2-(4-chlorophenyl)-N-((2-(2,6-dioxopiperidin-3-yl)-1-oxoisoindolin-5-yl)methyl)-2,2-difluoroacetamide], in series [1], the water uptake entry is “about 1.4 % w/w”.
Take `O=C1CCC(N2Cc3cc(CNC(=O)C(F)(F)c4ccc(Cl)cc4)ccc3C2=O)C(=O)N1` (centres unmarked) [Form C, 2-(4-chlorophenyl)-N-((2-(2,6-dioxopiperidin-3-yl)-1-oxoisoindolin-5-yl)methyl)-2,2-difluoroacetamide]: the water uptake entry in series [1] is reported as “about 0.6 % w/w”.
Turning to `C[C@@H]1C[C@@H]([C@H](O)CC2CC(=O)NC(=O)C2)C(=O)[C@@H](C)C1` [cycloheximide, reference compound], the “protein level of GSPT1, cycloheximide treatment alone” value at GSPT1 is on record as “did not show much effect on the protein level of GSPT1”.
For the molecule `Nc1cccc2c1C(=O)N(C1CCC(=O)NC1=O)C2=O` (centres unmarked) [pomalidomide], the “degradation of Ikaros under TSC1 or TSC2 deficiency” value on Ikaros is listed as “did not affect the degradation of Ikaros by pomalidomide”.

The values are drawn from patent US20220389515A1, “USE OF BIOMARKERS TO PREDICT CLINICAL SENSITIVITY TO 2-(4-CHLOROPHENYL)-N-((2-(2,6-DIOXOPIPERIDIN-3-YL)-1-OXOISOINDOLIN-5-YL)METHYL)-2,2-DIFLUOROACETAMIDE” (priority 2019, published 2022).
